In patent US20240376138A1, “Crystal Forms, Preparation Method And Application Of Aryl Phosphine Oxide Compound” (Chengdu Di'Ao Jiuhong Pharmaceutical Factory, priority 2021, published 2024):
Read-outs that look alike come from different tables or passages of the source.

Assays:
[1] = Comparative experiment of hygroscopicity (Chinese Pharmacopoeia 2020); type: physicochemical
Source text: The description of hygroscopic characteristics and the definition of hygroscopic weight gain are as follows: • Deliquescence: absorbs sufficient amount of water to form a liquid; • Very hygroscopic: the weight gain by hygroscopy is not less than 15%; • Hygroscopic: the weight gain by hygroscopy is less than 15% but not less than 2%; • Slightly hygroscopic: the weight gain by hygroscopy is less than 2% but not less than 0.2%; and
Not or almost not hygroscopic: the weight gain by hygroscopy is less than 0.2% from hygroscopicity.

[2] = target: Ba/F3 cells expressing EGFR-WT (Homo sapiens, UniProt P00533); experiment: Cell anti-proliferation experiment 1, BaF3 EGFR-WT wild-type cell line (CellTiter-Glo); type: cell-based; details: read-out: EGFR-WT IC50
Ba/F3 cells expressing EGFR-WT, sequence (P00533 whole entry, stated change not applied): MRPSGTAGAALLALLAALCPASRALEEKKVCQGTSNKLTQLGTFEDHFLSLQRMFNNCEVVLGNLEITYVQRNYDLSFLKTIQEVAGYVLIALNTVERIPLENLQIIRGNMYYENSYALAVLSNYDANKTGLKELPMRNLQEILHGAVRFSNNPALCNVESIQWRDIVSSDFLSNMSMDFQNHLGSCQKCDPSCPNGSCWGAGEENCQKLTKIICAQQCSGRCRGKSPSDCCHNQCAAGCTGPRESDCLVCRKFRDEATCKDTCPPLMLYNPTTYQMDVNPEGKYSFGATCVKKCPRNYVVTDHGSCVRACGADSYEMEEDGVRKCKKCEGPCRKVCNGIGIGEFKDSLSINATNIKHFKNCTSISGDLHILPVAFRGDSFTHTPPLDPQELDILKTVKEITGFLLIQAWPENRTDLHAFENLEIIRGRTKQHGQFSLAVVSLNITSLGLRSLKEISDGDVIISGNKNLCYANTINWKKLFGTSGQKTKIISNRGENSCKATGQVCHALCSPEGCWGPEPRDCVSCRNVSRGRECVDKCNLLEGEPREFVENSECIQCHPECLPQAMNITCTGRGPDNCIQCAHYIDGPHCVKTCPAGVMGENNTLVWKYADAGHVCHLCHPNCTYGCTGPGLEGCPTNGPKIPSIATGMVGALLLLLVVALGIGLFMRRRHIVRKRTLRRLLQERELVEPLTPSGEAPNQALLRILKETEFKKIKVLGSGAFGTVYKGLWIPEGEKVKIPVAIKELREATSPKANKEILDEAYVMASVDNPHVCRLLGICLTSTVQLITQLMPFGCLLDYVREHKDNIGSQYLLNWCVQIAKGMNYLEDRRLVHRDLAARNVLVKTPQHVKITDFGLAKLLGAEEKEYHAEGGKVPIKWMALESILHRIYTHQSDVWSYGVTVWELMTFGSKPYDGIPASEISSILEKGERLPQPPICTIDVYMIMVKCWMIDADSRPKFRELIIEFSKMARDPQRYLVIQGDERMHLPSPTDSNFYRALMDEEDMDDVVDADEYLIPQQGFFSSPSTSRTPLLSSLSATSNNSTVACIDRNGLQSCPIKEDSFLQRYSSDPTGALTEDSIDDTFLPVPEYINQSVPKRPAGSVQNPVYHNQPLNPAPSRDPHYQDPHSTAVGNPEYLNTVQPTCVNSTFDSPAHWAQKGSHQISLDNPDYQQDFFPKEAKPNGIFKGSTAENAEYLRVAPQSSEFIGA
Method: (§6) Test purpose: to detect the effect of the test compounds on the proliferation of cell lines containing EGFR mutations in BaF3 cells • 2. […] Cell information: Cell lines containing EGFR mutations in BaF3 were from WuXiAppTec: • BaF3-cell lines expressing EGFR mutation • EGFR-T790M/Del19 • EGFR-C797S/Del19 • EGFR-T790M/L858R • EGFR-C797S/L858R • EGFR-C797S/T790M/L858R • EGFR-C797S/T790M/Del19 • EGFR-WT wild-type cell lines • 2.2. Test method • Day 0: Cells were seeded in a plate. • a. An ultraviolet lamp of a biological safety cabinet was turned on and countdown was started for 30 minutes. • b. A medium was preheated in a 37° C. water bath. • c. After the ultraviolet irradiation was finished, the biological safety cabinet was opened. The pre-heated medium, PBS, and the like, were wiped with alcohol and placed in the biological safety cabinet. • d. The cells were removed from an incubator, blown to a uniform cell suspension in the biological safety cabinet and counted. • e. Based on the cell counting results, the cell suspension was adjusted to a density of 3,000 cells per well and 50 microliters per well, and seeded in 384-well plates. • f. The cells after seeding were incubated in a 5% CO2 incubator at 37° C. for 3 hours. • g. Compounds were added to the cell plates using Tecan (liquid workstation). • Day 3: the cell plate added with the compounds and CTG (CellTiter-Glo chemiluminescence cell activity assay reagent) were equilibrated at room temperature, 25 μl of CTG was added to each well, centrifuged at 1,000 rpm for 1 minute, and shaken for 1-2 minutes. And centrifuging for 1 minute at 1,000 rpm again, the cell plates were allowed to settle for 10 minutes to detect a signal value in Envision. The IC50 of each compound was calculated by computer fitting with XL-Fit analysis software (the IC50 of the compound on the cell activity inhibition could be obtained by reading the concentrations of the corresponding compounds at 500 inhibition rate). Inhibition rate % C (reading value of the control group without drug−reading value of the sample)/reading value of the control group without drug×100. • 3.

[3] = target: T1, BaF3 EML-4-ALK-L1196M cell line (Homo sapiens, UniProt Q9UM73, L1196M, cells depend on it); experiment: Cell anti-proliferation experiment 4 (CCK-8); type: cell-based; details: BaF3 EML-4-ALK-L1196M cells, 72 hours
T1 construct: fused on or other part: Q9HC35 (Echinoderm microtubule-associated protein-like 4)
T1 sequence (Q9UM73 whole entry L1196M, the tested form may be a part): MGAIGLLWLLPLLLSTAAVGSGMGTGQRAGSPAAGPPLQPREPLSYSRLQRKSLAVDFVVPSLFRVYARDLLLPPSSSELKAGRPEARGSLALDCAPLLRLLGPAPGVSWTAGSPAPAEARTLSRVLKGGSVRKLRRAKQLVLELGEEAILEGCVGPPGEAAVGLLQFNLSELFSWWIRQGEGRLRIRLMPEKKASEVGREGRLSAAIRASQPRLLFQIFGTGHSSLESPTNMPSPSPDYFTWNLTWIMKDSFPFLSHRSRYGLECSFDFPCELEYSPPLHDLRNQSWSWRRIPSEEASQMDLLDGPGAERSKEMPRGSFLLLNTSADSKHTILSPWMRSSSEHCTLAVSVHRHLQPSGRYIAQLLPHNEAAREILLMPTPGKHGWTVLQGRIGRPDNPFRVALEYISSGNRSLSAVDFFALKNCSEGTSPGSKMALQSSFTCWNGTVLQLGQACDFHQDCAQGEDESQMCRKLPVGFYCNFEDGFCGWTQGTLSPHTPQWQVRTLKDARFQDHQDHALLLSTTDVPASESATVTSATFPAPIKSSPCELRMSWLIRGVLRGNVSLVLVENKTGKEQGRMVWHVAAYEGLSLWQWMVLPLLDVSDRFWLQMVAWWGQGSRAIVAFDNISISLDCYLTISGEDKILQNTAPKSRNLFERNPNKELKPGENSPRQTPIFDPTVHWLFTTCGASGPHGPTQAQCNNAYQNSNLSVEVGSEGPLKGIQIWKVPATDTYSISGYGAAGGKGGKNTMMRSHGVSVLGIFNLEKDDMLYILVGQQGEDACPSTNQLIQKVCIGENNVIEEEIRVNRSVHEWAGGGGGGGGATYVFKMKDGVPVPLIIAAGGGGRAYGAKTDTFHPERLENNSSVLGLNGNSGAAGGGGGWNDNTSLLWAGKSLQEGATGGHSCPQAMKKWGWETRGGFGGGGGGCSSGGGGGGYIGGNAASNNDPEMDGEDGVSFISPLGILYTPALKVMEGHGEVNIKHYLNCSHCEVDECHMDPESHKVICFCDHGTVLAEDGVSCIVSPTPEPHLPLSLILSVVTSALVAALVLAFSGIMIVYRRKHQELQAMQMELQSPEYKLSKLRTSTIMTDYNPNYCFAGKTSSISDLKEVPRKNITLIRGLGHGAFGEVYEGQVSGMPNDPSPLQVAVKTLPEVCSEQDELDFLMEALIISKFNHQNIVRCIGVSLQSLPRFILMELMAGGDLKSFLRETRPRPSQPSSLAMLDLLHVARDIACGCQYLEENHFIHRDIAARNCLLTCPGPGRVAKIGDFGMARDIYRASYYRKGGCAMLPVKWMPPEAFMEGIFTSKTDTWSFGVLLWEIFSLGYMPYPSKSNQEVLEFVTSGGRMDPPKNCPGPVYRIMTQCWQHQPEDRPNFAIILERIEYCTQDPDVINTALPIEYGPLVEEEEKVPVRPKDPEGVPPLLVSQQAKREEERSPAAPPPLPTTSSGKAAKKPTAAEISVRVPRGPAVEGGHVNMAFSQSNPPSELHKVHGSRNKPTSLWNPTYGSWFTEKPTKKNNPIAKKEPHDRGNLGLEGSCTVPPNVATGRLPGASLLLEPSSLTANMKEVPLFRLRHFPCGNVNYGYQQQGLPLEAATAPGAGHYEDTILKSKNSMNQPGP
Method: • 1. […] Test materials • BaF3 EML-4-ALK-L1196M cell line, brand: KYinno, article number: KC-0102 • Cell Counting Kit-8 (CCK-8), brand: Targetmol, article number: C0005 • Multifunctional microplate reader, POLARstar Omega, brand: BMG LABTECH • 3. […] 10 μL of the compound diluted in gradient was added to the cell plate to give final concentrations of the compounds as 500, 166.67, 55.56, 18.52, 6.17, 2.06, 0.69, 0.23 and 0.08 nM. • d. […] Test results: The IC50 values of compound DA and compound 1 in the patent application WO2021073498A1 against BaF3 cells expressing EML-4-ALK-L1196M are shown in Table 23.

[4] = target: Ba/F3 cells expressing EGFR-C797S/T790M/Del19 (Homo sapiens, UniProt P00533, T790M/C797S, cells depend on it, form not given); experiment: Cell anti-proliferation experiment 1, BaF3 cells expressing EGFR mutation (CellTiter-Glo); type: cell-based; details: read-out: EGFR-C797S/T790M/Del19 IC50
[5] = target: Ba/F3 cells expressing EGFR-C797S/L858R (Homo sapiens, UniProt P00533, C797S/L858R, cells depend on it); experiment: as above; type: cell-based; details: 3 days, CTG, read-out: EGFR-C797S/L858R IC50
Method: (§7) Test purpose: to detect the effect of the test compounds on the proliferation of cell lines containing EGFR mutations in BaF3 cells • 2. Test information: • 2.1. Cell information: Cell lines containing EGFR mutations in BaF3 were from WuXiAppTec: • BaF3-cell lines expressing EGFR mutation • EGFR-T790M/Del19 • EGFR-C797S/Del19 • EGFR-T790M/L858R • EGFR-C797S/L858R • EGFR-C797S/T790M/L858R • EGFR-C797S/T790M/Del19 • EGFR-WT wild-type cell lines • 2.2. Test method • Day 0: Cells were seeded in a plate. • a. An ultraviolet lamp of a biological safety cabinet was turned on and countdown was started for 30 minutes. • b. A medium was preheated in a 37° C. water bath. • c. After the ultraviolet irradiation was finished, the biological safety cabinet was opened. […] The cells were removed from an incubator, blown to a uniform cell suspension in the biological safety cabinet and counted. • e. […] The IC50 of each compound was calculated by computer fitting with XL-Fit analysis software (the IC50 of the compound on the cell activity inhibition could be obtained by reading the concentrations of the corresponding compounds at 500 inhibition rate). Inhibition rate % C (reading value of the control group without drug−reading value of the sample)/reading value of the control group without drug×100. • 3.

[6] = target: Ba/F3 cells expressing EGFR-T790M/Del19 (Homo sapiens, UniProt P00533, T790M, cells depend on it, form not given); experiment: as above; type: cell-based; details: 3 days, CTG, read-out: EGFR-T790M/Del19 IC50
Ba/F3 cells expressing EGFR-T790M/Del19, sequence (P00533 with tags, fused parts or gaps DEL746-750/T790M, form open): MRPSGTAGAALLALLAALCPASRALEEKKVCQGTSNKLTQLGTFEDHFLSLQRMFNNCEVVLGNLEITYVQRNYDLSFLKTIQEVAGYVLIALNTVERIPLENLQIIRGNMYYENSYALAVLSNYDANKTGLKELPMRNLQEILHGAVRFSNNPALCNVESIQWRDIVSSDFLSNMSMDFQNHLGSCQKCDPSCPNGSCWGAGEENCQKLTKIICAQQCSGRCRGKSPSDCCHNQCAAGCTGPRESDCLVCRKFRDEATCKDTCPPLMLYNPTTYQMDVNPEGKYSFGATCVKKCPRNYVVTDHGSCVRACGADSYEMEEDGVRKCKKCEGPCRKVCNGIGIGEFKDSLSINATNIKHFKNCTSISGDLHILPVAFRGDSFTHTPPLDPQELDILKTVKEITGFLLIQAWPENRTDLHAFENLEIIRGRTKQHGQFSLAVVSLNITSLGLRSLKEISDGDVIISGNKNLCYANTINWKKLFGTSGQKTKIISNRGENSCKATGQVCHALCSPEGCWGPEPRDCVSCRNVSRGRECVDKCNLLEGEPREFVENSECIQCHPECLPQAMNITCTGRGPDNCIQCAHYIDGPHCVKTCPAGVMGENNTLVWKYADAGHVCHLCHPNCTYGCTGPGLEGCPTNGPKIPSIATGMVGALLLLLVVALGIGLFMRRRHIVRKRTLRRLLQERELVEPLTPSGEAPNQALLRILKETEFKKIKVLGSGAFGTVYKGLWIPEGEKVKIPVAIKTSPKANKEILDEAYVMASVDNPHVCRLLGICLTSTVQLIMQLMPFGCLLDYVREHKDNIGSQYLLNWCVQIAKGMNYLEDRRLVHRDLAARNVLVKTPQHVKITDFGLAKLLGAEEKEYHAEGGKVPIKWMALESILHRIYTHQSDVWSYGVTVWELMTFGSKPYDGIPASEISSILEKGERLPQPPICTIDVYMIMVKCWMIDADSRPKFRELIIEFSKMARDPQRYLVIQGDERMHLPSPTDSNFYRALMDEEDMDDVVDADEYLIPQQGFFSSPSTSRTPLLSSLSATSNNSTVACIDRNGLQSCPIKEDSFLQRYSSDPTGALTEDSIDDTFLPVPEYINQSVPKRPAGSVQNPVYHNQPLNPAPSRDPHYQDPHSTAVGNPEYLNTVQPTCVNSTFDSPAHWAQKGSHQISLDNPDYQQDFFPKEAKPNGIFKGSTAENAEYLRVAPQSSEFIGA

Solubility test = type: physicochemical; details: Solution with pH = 6.8, 25° C.±2° C.
[7] = target: T2, BaF3 cells expressing EML-4-ALK-L1196M (Homo sapiens, UniProt Q9UM73, L1196M, cells depend on it); experiment: Cell anti-proliferation experiment 3, BaF3 cells with ALK fusion and mutation (CellTiter-Glo); type: cell-based; details: 3 days, CTG, read-out: EML-4-ALK-L1196M IC50
T2 construct: fused on or other part: Q9HC35 (Echinoderm microtubule-associated protein-like 4)
T2 sequence (Q9UM73 whole entry L1196M, the tested form may be a part): as the sequence (Q9UM73 whole entry L1196M, the tested form may be a part) above
Source text: (§1) • 1. […] Test information: • 2.1. Cell information: Cell lines containing ALK mutations in BaF3 were from WuXiAppTec: • Ba/F3-cell lines expressing ALK gene fusion and mutation • Ba/F3-EML-4-ALK-WT • Ba/F3-EML-4-ALK-L 1196M • 2.2.
(§2) Test results: The IC50 values of the compound DA and the control compound against BaF3 cells expressing EML-4-ALK-WT and EML-4-ALK-L1196M are shown in Table 22. • 4.

[8] = system: PC9 cells expressing EGFR-Del19; experiment: Cell anti-proliferation experiment 2, PC9 cells (SRB); type: cell-based; details: Homo sapiens, PC-9, 72 h, read-out: EGFR-Del 19 GI50
Method: (§3) • 1. […] Test information: • 2.1. Cell information: PC9 cells carried EGFR Del19 mutation, and the rest of mutant cells were constructed from PC9 cells according to the conventional stable cell strain construction method. • PC9-cell lines expressing EGFR mutation • EGFR-Del19 • EGFR-T790M/Del19 • EGFR-C797S/T790M/Del19 • 2.2. Test method:
(§4) The test compounds were diluted by 5 times each time with an appropriate concentration as an initial concentration of the test, and totally diluted into 6 concentration gradients. […] SRB (Sulforhodamine B) detection method was used, and the optical density value of each well was read by a microplate reader at 490 nm wavelength.
(§5) The optical density of the cells at the drug action of 0 was set as a Tz value representing the value of the cells at the time that the drug was added. The optical density value of the cells after the solvent control DMSO acted for 72 hours was set as a C value. The optical density of the cells on which the test compounds acted for 72 hours was set as a Ti value. The response of the cells to the drug was calculated according to a method proposed by the U.S. NIH-NCI (National Institutes of Health-National Institute of Cancer): When Ti is more than or equal to Tz, the value was [(Ti−Tz)/(C−Tz)]×100; and when Ti is less than Tz, the value was [(Ti−Tz)/Tz]×100.

[9] = system: PC9 cells expressing EGFR-T790M/Del19; experiment: as above; type: cell-based; details: Homo sapiens, PC-9, 72 h, read-out: EGFR-T790M/Del19 GI50
Method: as §3, §4, §5

[10] = system: PC9 cells expressing EGFR-C797S/T790M/Del19; experiment: as above; type: cell-based; details: Homo sapiens, PC-9, 72 h, read-out: EGFR-C797S/T790M/Del19 GI50
Method: as §3, §4, §5

[11] = target: Ba/F3 cells expressing EGFR-C797S/T790M/L858R (Homo sapiens, UniProt P00533, T790M/C797S/L858R, cells depend on it); experiment: Cell anti-proliferation experiment 1, BaF3 cells expressing EGFR mutation (CellTiter-Glo); type: cell-based; details: read-out: EGFR-C797S/T790M/L858R IC50
Method: as §6

[12] = target: Ba/F3 cells expressing EGFR-C797S/Del19 (Homo sapiens, UniProt P00533, C797S, cells depend on it, form not given); experiment: as above; type: cell-based; details: 3 days, CTG, read-out: EGFR-C797S-Del19 IC50
[13] = target: Ba/F3 cells expressing EGFR-T790M/L858R (Homo sapiens, UniProt P00533, T790M/L858R, cells depend on it); experiment: as above; type: cell-based; details: 3 days, CTG, read-out: EGFR-T790M/L858R IC50
Method: as §7

[14] = target: T3, BaF3 cells expressing EML-4-ALK-WT (Homo sapiens, UniProt Q9UM73); experiment: Cell anti-proliferation experiment 3, BaF3 cells with ALK fusion (CellTiter-Glo); type: cell-based; details: 3 days, CTG, read-out: EML-4-ALK-WT IC50
T3 construct: fused on or other part: Q9HC35 (Echinoderm microtubule-associated protein-like 4)
T3 sequence (Q9UM73 whole entry, change not shown, the tested form may be a part): as the sequence (Q9UM73 whole entry L1196M, the tested form may be a part) above, with M1196L counted along it
Source text: as §1, §2

Q: What does the source list for `COc1cc(N2CCC(N3CCN(C)CC3)CC2)c(C)cc1Nc1ncc(Br)c(Nc2ccc(C)cc2P(C)(C)=O)n1` [Compound DA, (2-((5-Bromo-2-((2-methoxy-5-methyl-4-(4-(4-methylpiperazin-1-yl)piperidin-1-yl)phenyl)amino)pyrimidin-4-yl)amino)-5-methylphenyl)dimethylphosphorus oxide]?
A: Hygroscopicity ([1]; class by weight gain after 24 h): Hygroscopic (the weight gain by hygroscopy is less than 15% but not less than 2%); Weight gain % after 24 h ([1]; hygroscopicity test, 24 h): 3.78%; GI50 [2]: 1260 nM; GI50 ([3]; CCK-8, first test, read-out: IC50 in the first test): 15.1 nM; GI50 ([3]; CCK-8, second test, read-out: IC50 in the second test): 10.4 nM; GI50 [4]: 16.5 nM; GI50 [5]: 32.6 nM; GI50 [6]: 6.5 nM; Solubility for 24 h (Solubility test): 2110 µg/mL; GI50 [7]: 13.1 nM; GI50 [8]: 48.4 nM; GI50 [9]: 12.8 nM; GI50 [10]: 15.6 nM; GI50 [11]: 64.1 nM; GI50 [12]: 48.1 nM; GI50 [13]: 22.5 nM; GI50 [14]: 8 nM
